# Results from US20080206287A1, “Use of cyclosporin A to sensitize resistant cancer cells to death receptor ligands” (priority 2006, published 2008).
# “Also recorded” adds a separate entry of the source. Residues, ends and D or L forms follow the SMILES beside them. *: point of attachment. Cbz = O=C(OCc1ccccc1)*; CH2F = FC*
# Legend:
# [1] = tested on: FLIP; settings: Kim et al. 2002; cited from earlier work
# [2] = tested on: PPC-1 cells; settings: positive control, Kim et al. 2002; cited from earlier work
# [3] = tested on: PPC-1 cells; assay: Extrinsic (CH-11, TRAIL) versus intrinsic (VP-16, STS) pathway stimuli, MTT; format: cell-based; settings: MTT 24 hours
# Text: Identification of small molecules that specifically sensitize to extrinsic pathway. The nine compounds identified using anti-FAS antibody screening theoretically could non-specifically sensitize tumor cells to apoptotic stimuli or they could be selective for the extrinsic pathway. To distinguish between these two possibilities, the effects of compounds on apoptosis induced by extrinsic pathway stimuli (e.g., CH-11 antibody; TRAIL) were compared to the effects on the intrinsic pathway stimuli (e.g., etoposide [VP16]; staurosporine [STS]). Accordingly, PPC-1 cells were treated with various concentrations of compounds with or without CH-11, TRAIL, VP-16, or STS, and 24 hours later, cell viability was measured by MTT assays.
# [4] = tested on: FLIP; assay: FLIP protein immunoblot; format: cell-based, human
# Experimental: Immunoblot analysis. Protein extracts were obtained by washing cells with phosphate-buffered saline (PBS) [pH 7.4] and suspending the cells in lysis buffer [10 mM Tris (pH 7.4), 150 mM NaCl, 0.1% Triton X-100, 0.5% sodium deoxycholate, and 5 mM EDTA] containing protease inhibitors (Complete tablets; Roche, Indianapolis, Ind.). Immunoblot assays were performed as described in Carter et al. (Blood 105:4043-4050, 2005). Briefly, equal amounts of protein as determined by a Bradford assay (Bradford, Anal. Biochem. 72:248-54, 1976) were subjected to SDS-PAGE (4-20% gradient gels from ISC BioExpress, Kaysville, Utah), followed by transfer to nitrocellulose membranes. Membranes were incubated with mouse monoclonal anti-human FLIP (NF6 clone) (1:500 v/v) (Alexis, San Diego, Calif.), 1:1,000 (v/v) anti-aspase-8 clone 5F7 (Upstate) and mouse monoclonal anti-tubulin (1:2000 v/v) (Sigma Inc). Secondary antibodies consisted of horseradish peroxidase-conjugated goat anti-rabbit IgG or goat anti-mouse IgG (Bio-Rad, Hercules, Calif.). Detection was performed by the enhanced chemiluminescence method (Pierce, Rockford, Ill.).
# Effects of sensitizing compounds on FLIP protein. Since FAS-sensitizing compounds 6094911 and 5809354 modulate the extrinsic pathway downstream of TNF-family death receptors but upstream of effector caspases, the effects of those compounds on expression of FLIP, an intracellular antiapoptotic protein that binds caspases-8 and -10 and is capable of suppressing death receptor signaling at a proximal point within the extrinsic pathway, was examined. For these experiments, PPC-1 cells were treated with sensitizing compounds in the presence or absence of CH-11 antibody, then cell lysates were prepared 24 hours later, and analyzed by immunoblotting for FLIP.
# The levels of the short isoform of FLIP were less than 5% of total FLIP protein as measured by immunoblotting and quantitative densitometry. Therefore, given the very low levels of the short isoform, the analysis was limited to the effects of the compounds on the long isoform of FLIP.
# [5] = tested on: PPC-1 cells; assay: PPC-1 cell viability (MTT) with or without CH-11 anti-FAS antibody; format: cell-based; settings: Homo sapiens, PPC-1, read-out: EC50 as a FAS-sensitizer in PPC1 cells
# Experimental: High throughput screening. Screens were performed using a fully integrated, programmable robotic liquid handling system (Biomek® FX, Beckman-Coulter Inc., Fullerton, Calif.), with integrated plate reader (LJL analyst HT 96-384, Sunnyvale, Calif.) and environmentally controlled plate carousel set at 37° C. and 5% CO2:95% air. PPC-1 cells (1×10^4) were seeded overnight into 96 well, flat-bottom plates (Costar, Cambridge, Mass.) in 100 μL of medium containing 2.5% FCS. The next day, aliquots from the 50,000 compound Diversa library were added at a final concentration of 7.5 μg/mL (about 25 μM) in a final concentration of 0.5% (v:v) dimethylsulfoxide (DMSO). CH-11 antibody (100 ng/mL) was then added, and the cells were incubated for 24 hours before assessing cell viability by a 3-(4,5-Dimethylthiazol-2-yl)-2,5-diphenyltetrazolium Bromide (MTT) dye reduction assay (Sigma).
# (§1) Cell death assays. Cell viability was measured by MTT and MTS assays, essentially as described in Schimmer et al. (Cancer Cell 5:25-35, 2004). Absorbance readings were plotted against a standard curve to derive the corresponding cell number, and cell viability was expressed as a percentage relative to untreated cells. Apoptosis was measured by flow cytometric analysis of Annexin V surface expression after staining cells with FITC-anti-Annexin V and propidium iodide (PI) (Biovision, Mountain View, Calif.), as described in Pedersen et al. (Blood 100:2965-72, 2002).
# Statistics. Cytotoxicity induced by compounds used in combination with conventional agents (e.g., CH-11, TRAIL, VP-16 and staurosporine) was evaluated for evidence of synergy toxicity by comparing the slopes of the dose-response curves. If the combination of the potential sensitizing compound with the conventional agent increased the slope of the dose-response curve compared to the slopes of either the sensitizer or the conventional agent alone, then the interaction was considered synergistic. […] Statistical significance was defined as a p<0.01, using two-sided tests. Synergy was confirmed by performing multiple drug dose-effect calculations using the Median Effect methods as described in Chou (“The Median-Effect Principle and the Combination Index for Quantitation of Synergism and Antagonism.” In: D. C. Rideout and T. C. Chou (eds.), Synergism and Antagonism in Chemotherapy, pp. 61-102: Academic Press, Inc., 1991).
# Identification of small molecule FAS sensitizers. Resistance to death receptor ligands may permit malignant cells to escape immune surveillance and limit the clinical efficacy of recombinant death receptor ligands such as TRAIL. To identify small molecules that restore sensitivity to death receptor ligands, a cell-based high throughput screen was performed using the FAS and TRAIL-resistant prostate cancer cell line PPC-1 and a commercially available 50,000 compound library. The screens were performed in 96 well plates, to which compounds were added at 7.5 μg/ml (about 25 μM), followed by agonistic anti-FAS monoclonal antibody CH-11 (100 ng/mL). Cell viability was measured 24 hours later by MTT assay. […] The coefficient of variation (CV) for PPC-1 cells treated with CH-11 alone was determined to be 5%, based on 90 replicate determinations. A 50% decrease in cell viability was used as a cut-off for scoring hits.
# From the primary screen of 50,000 compounds, 313 reproducible hits were obtained. To determine whether any of the 313 compounds were toxic molecules as opposed to FAS-sensitizers, the 313 compounds were evaluated in secondary screens where PPC-1 cells were treated with increasing concentrations of the compounds in the presence or absence of CH-11 antibody. Through these secondary screens, nine sensitizers were identified that increased CH-11-mediated killing above the cell death produced by treatment of the cells with the compound alone (Table 1). […]
# [6] = tested on: PPC-1 cells; assay: Annexin V apoptosis with CH-11, sensitizers and caspase inhibitors; format: cell-based; settings: CH-11 and sensitizers such as 6094911, 5809354, 5569100, 12 hours
# Experimental: as §1
# Caspase-dependent induction of apoptosis by combination treatment with CH-11 and FAS-sensitizing compounds. To further assess the mechanism of the 8 compounds that selectively modulated tumor sensitivity to extrinsic pathway stimuli, the effects of […]-Val-Ala-Asp-fluoromethylketone (zVAD-fmk), a broad-spectrum irreversible inhibitor of caspase-family proteases (Enzyme Systems, Dublin, Calif.) was tested. Accordingly, PPC-1 cells were treated with CH-11 and sensitizers such as 6094911, 5809354, and 5569100 with and without zVAD-fmk (100 μM) for 12 hours. Apoptosis was then measured by Annexin V staining.
compound,measurement,setting,value
"CC1(C)CC[C@]2(C(=O)O)CC[C@]3(C)[C@H](C(=O)C=C4[C@@]5(C)C=C(C#N)C(=O)C(C)(C)[C@@H]5CC[C@]43C)[C@@H]2C1 [CDDO, 2-cyano-3,12-dioxooleana-1,9-dien-28-oic acid]",FLIP protein levels,[1],reduce FLIP protein levels; also recorded: reduces FLIP expression
same,sensitization of PPC-1 cells to TNF-family death receptors and ligands,[2],sensitize PPC-1 cells to TNF-family death receptors and ligands
"C[n+]1ccn2c3c(c4cc(C5CCCCC5)ccc42)CCCc31.[I-] [compound 5362611, 8-Cyclohexyl-3-methyl-5,6-dihydro-4H-pyrazino[3,2,1-jk]carbazol-3-ium; iodide]","sensitization to extrinsic (CH-11, TRAIL) and intrinsic (VP-16, STS) pathway stimuli",[3],sensitized to both the death receptor (extrinsic) and mitochondrial pathway (intrinsic) stimuli
"Cn1c(=N)n(CC(=O)c2cc(C(C)(C)C)c(O)c(C(C)(C)C)c2)c2ccccc21 [compound 5541203, 1-(3,5-Di-tert-butyl-4-hydroxy-phenyl)-2-(2-imino-3-methyl-2,3-dihydro-benzoimidazol-1-yl)-ethanone]",levels of FLIP protein (long isoform),"[4]; PPC-1 cells, with or without CH-11, 24 hours, immunoblot",had little effect
same,EC50,[5],25.7 µM
"COC(=O)C[C@H](NC(=O)[C@H](C)NC(=O)[C@@H](NC(=O)OCc1ccccc1)C(C)C)C(=O)CF [zVAD-fmk, reference compound] (Cbz-Val-Ala-Asp(OMe)-CH2F)",effect of caspase inhibitor on apoptosis by CH-11 plus sensitizers,[6],blocked sensitization to CH-11
same,effect of caspase inhibitor pre-treatment on reductions in FLIP protein,[4]; pre-treatment before 5809354 or 5569100,did not prevent reductions in FLIP protein
